According to patent US20150353495A1 (PORTOLA PHARMACEUTICALS, INC., priority 2010, published 2015):

How the values were obtained:
JAK2 = target: T1, JAK2 (Homo sapiens, UniProt O60674); assay: Z'-LYTE kinase assay JAK2; assay type: biochemical
T1 construct: 5 μl of catalytic domain recombinant Kinase enzyme+Tyr peptide substrate (Invitrogen, CA); purchased Invitrogen
In short: (§1)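 Read-out is FRET fluorescence between coumarin and fluorescein on a Tyr6 peptide, lost when the development protease cleaves unphosphorylated substrate. Kinase reaction used recombinant catalytic domain with ATP, 1 h at room temperature, 1% DMSO.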

[1] = system: JAK1/3 signaling to STAT5 in primary T cells; assay: IL2 stimulation of JAK1/3 signaling to STAT5 in primary T cells (pSTAT5 Y694, FACS); assay type: cell-based; settings: T-cell; for inhibition at 0.2 µM: 0.2 uM compound, read-out: IL-2/STAT5 Percent Inhibition at 0.2 uM; for inhibition at 1 µM: 1.0 μM compound, read-out: IL-2/STAT5 Percent Inhibition at 1.0 μM
Protocol: IL2 Stimulation of JAK1/3 Signaling to STAT5 in Primary T Cells:
The effect of JAK inhibitors on cytokine signaling pathways utilizing JAK3 was determined using an IL2 stimulation assay. IL2 engages a receptor complex that contains the IL2 receptor alpha and beta subunits, and the common gamma chain, to initiate activation of JAK1 and JAK3 leading to phosphorylation of STAT5 at tyrosine position 694. Lymphocytes are isolated from heparinized whole blood over a ficoll gradient, then resuspended in tissue culture media containing 10% fetal calf serum at 10×10̂6 cells/ml. 100 μl aliquots are pre-treated for 1 hour with various concentrations of compound, and then stimulated for 12 minutes with 100 U/ml IL2. The signaling reaction is terminated by fixing in 2% paraformaldehyde for 10 minutes at room temperature. Fixed cells are then washed and permeablized by suspension in 50% methanol (in PBS) at −80° C. Following overnight incubation at 4° C., cells are washed and resuspended in PBS containing 0.5% bovine serum albumin containing CD3-APC and pSTAT5 Y694-PE conjugated antibodies. After 1 hour incubation, cells are washed and the extent of STAT5 phosphorlyation in T cells is measured by FACS analysis.

[2] = system: JAK1/3 signaling to STAT6 in Ramos B cells; assay: IL4 stimulation of JAK1/3 signaling to STAT6 in Ramos B cells (pSTAT6 Y641, FACS); assay type: cell-based; settings: Homo sapiens; for inhibition at 0.2 µM: 0.2 uM compound, read-out: IL-4/STAT6 in Ramos Percent Inhibition at 0.2 uM; for inhibition at 1 µM: 1.0 uM compound, read-out: IL-4/STAT6 in Ramos Percent Inhibition at 1.0 uM
In short: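 Ramos cells in 10% FCS medium were pre-treated 1 h with compound, stimulated 15 min with 15 ng IL4, fixed in 2% paraformaldehyde and methanol-permeabilized. Intracellular phospho-STAT6 Y641 was stained with PE-conjugated antibody and quantified by flow cytometry.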

JAK1 = target: T2, JAK1 (Homo sapiens, UniProt P23458); assay: Z'-LYTE kinase assay JAK1; assay type: biochemical
T2 construct: 5 μl of catalytic domain recombinant Kinase enzyme+Tyr peptide substrate (Invitrogen, CA); purchased Invitrogen
In short: as §1

JAK3 = target: T3, JAK3 (Homo sapiens, UniProt P52333); assay: Z'-LYTE kinase assay JAK3; assay type: biochemical
T3 construct: 5 μl of catalytic domain recombinant Kinase enzyme+Tyr peptide substrate (Invitrogen, CA); purchased Invitrogen
In short: as §1

TYK2 = target: T4, TYK2 (Homo sapiens, UniProt P29597); assay: Z'-LYTE kinase assay TYK2; assay type: biochemical
T4 construct: 5 μl of catalytic domain recombinant Kinase enzyme+Tyr peptide substrate (Invitrogen, CA); purchased Invitrogen
T4 sequence (P29597 897-1176 limits assumed): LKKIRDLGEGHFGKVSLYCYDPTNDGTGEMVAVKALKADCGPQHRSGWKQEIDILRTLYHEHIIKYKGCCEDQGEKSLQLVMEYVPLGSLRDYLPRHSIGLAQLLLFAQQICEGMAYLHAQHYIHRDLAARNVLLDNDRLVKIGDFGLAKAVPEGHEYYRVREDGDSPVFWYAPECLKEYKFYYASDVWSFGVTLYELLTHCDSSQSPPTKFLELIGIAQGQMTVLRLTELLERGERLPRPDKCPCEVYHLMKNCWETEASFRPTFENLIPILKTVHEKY
In short: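 Recombinant catalytic-domain TYK2 with Tyr6 peptide in Z′-LYTE FRET format, 1% DMSO final, kinase reaction 1 h at room temperature, then protease development 1 h. Fluorescence read at 445/520 nm (excitation 400 nm), percent phosphorylation vs no-inhibitor control, IC50 from 4-parameter logistic fit.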

T2 sequence (P23458 875-1153 limits assumed): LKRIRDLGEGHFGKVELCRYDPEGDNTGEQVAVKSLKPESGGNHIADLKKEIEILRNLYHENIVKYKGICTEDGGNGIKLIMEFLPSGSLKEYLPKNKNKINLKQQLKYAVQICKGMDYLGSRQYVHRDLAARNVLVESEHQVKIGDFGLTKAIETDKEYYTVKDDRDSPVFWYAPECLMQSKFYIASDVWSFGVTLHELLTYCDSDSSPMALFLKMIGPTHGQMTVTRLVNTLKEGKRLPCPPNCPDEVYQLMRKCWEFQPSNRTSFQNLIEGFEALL
T3 sequence (P52333 822-1111 limits assumed): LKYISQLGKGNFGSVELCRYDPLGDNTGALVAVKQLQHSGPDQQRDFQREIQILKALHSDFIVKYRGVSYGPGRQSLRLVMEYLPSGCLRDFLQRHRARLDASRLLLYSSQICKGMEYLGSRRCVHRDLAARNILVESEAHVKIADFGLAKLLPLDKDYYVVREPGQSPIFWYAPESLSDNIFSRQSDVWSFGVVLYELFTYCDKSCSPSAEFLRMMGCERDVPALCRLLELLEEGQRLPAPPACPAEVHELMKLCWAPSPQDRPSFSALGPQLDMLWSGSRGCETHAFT
T1 sequence (O60674 849-1124 limits assumed): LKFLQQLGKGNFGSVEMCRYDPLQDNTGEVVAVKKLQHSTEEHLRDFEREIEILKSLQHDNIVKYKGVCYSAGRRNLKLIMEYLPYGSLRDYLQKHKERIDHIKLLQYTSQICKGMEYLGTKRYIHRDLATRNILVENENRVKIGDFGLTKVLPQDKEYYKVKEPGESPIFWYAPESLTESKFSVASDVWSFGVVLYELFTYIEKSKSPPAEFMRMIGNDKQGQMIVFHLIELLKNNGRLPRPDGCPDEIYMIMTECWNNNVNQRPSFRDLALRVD

Row | SMILES | IC50 (JAK2) [nM] | inhibition at 0.2 µM [1] [%] | inhibition at 1 µM [1] [%] | inhibition at 0.2 µM [2] [%] | inhibition at 1 µM [2] [%] | IC50 (JAK1) [nM] | IC50 (JAK3) [nM] | IC50 (TYK2) [nM]
1 | CCC(=O)N1CCC(c2ccc(Nc3cc(NCc4ccccc4F)c(C(N)=O)cn3)cc2)CC1 [Example 79] | 100 to 1000 | 53 | 73 | 20 | 43 | 100 to 1000 | 10 to 100 | 100 to 1000
2 | NC(=O)c1cnc(Nc2ccc(OCCN3CCCC3)cc2)cc1NCc1ccccc1 [Example 428, 4-(benzylamino)-6-(4-(2-(pyrrolidin-1-yl)ethoxy)phenylamino)nicotinamide] | 100 to 1000 | 56 | 84 | 33 | 46 | > 1000 | 1 to 10 | > 1000
3 | CC(=O)N1CCN(c2ccc(Nc3cc(NCc4cccc(F)c4F)c(C(N)=O)cn3)cc2)CC1 [Example 256, 6-(4-(4-acetylpiperazin-1-yl)phenylamino)-4-(2,3-difluorobenzylamino)nicotinamide] | 10 to 100 | 69 | 100 | 37 | 64 | 100 to 1000 | 1 to 10 | 100 to 1000
4 | CN1CCC(c2ccc(Nc3cc(NCc4ccccc4F)c(C(N)=O)cn3)cc2)CC1 [Example 107, 4-(2-fluorobenzylamino)-6-(4-(1-methylpiperidin-4-yl)phenylamino)nicotinamide] | 100 to 1000 | 58 | 82 | 43 | 73 | 100 to 1000 | 1 to 10 | 100 to 1000
5 | Cc1cc(Nc2cc(NCc3cccc(F)c3)c(C(N)=O)cn2)ccc1N1CCCC1=O [Example 61, 4-(3-fluorobenzylamino)-6-(3-methyl-4-(2-oxopyrrolidin-1-yl)phenylamino)nicotinamide] | 10 to 100 | 39 | 67 | 40 | 60 | 100 to 1000 | 1 to 10 | 100 to 1000
6 | NC(=O)c1cnc(Nc2ccc(N3CCOCC3)cc2)cc1NCc1ccccc1 [Example 250, 4-(benzylamino)-6-(4-morpholinophenylamino)nicotinamide] | 100 to 1000 | 18 | 50 | 11 | 26 | > 1000 | 1 to 10 | > 1000
7 | NC(=O)c1cnc(Nc2ccc(N3CCOCC3)cc2)cc1NCc1cccc(F)c1 [Example 67, 4-(3-fluorobenzylamino)-6-(4-morpholinophenylamino)nicotinamide] | 10 to 100 | 61 | 89 | 48 | 69 | 100 to 1000 | 1 to 10 | 100 to 1000
8 | NC(=O)c1cnc(Nc2ccc(C3CCN(C(=O)C4CCOCC4)CC3)cc2)cc1NCc1ccccc1F [Example 119, 4-(2-fluorobenzylamino)-6-(4-(1-(tetrahydro-2H-pyran-4-carbonyl)piperidin-4-yl)phenylamino)nicotinamide] | 10 to 100 | 54 | 83 | 17 | 47 | 100 to 1000 | 1 to 10 | 100 to 1000
9 | NC(=O)c1cnc(Nc2ccc(C3CCNCC3)cc2)cc1NCc1cccc(F)c1F [Example 209, 4-(2,3-difluorobenzylamino)-6-(4-(piperidin-4-yl)phenylamino)nicotinamide] | 10 to 100 | 70 | 99 | – | – | 100 to 1000 | 1 to 10 | 100 to 1000
10 | CS(=O)(=O)Nc1cccc(Nc2cc(NCc3ccccc3)c(C(N)=O)cn2)c1 [Example 388] | 100 to 1000 | 18 | 55 | – | – | 100 to 1000 | 1 to 10 | 100 to 1000
11 | NC(=O)c1cnc(Nc2ccc(C(=O)N3CCCC3)cc2)cc1NCc1ccccc1 [Example 39, 4-(benzylamino)-6-(4-(pyrrolidine-1-carbonyl)phenylamino)nicotinamide] | 100 to 1000 | 37 | 65 | 47 | 52 | 100 to 1000 | 1 to 10 | 100 to 1000
12 | NC(=O)c1cnc(Nc2cccc(C(=O)N3CCC3)c2)cc1NCc1ccccc1 [Example 45, 6-(3-(azetidine-1-carbonyl)phenylamino)-4-(benzylamino)nicotinamide] | 100 to 1000 | 22 | 25 | – | – | 100 to 1000 | 10 to 100 | > 1000
13 | NC(=O)c1cnc(Nc2cccc(OCCN3CCCC3)c2)cc1N[C@H](CO)c1ccccc1 [Example 59, (S)-4-(2-hydroxy-1-phenylethylamino)-6-(3-(2-(pyrrolidin-1-yl)ethoxy)phenylamino)nicotinamide] | 100 to 1000 | 12 | 50 | 11 | 27 | > 1000 | 1 to 10 | > 1000
14 | Cc1cc(Nc2cc(NCc3cccc4[nH]ccc34)c(C(N)=O)cn2)ccc1C(=O)N1CCCC1 [Example 461, 4-((1H-indol-4-yl)methylamino)-6-(3-methyl-4-(pyrrolidine-1-carbonyl)phenylamino)nicotinamide] | < 1 | 94 | 101 | – | – | 1 to 10 | < 1 | 1 to 10
15 | Cc1cc(Nc2cc(NCc3cccc4ccsc34)c(C(N)=O)cn2)ccc1C(=O)N1CCCC1 [Example 458, 4-(benzo[b]thiophen-7-ylmethylamino)-6-(3-methyl-4-(pyrrolidine-1-carbonyl)phenylamino)nicotinamide] | 10 to 100 | 49 | 104 | – | – | 100 to 1000 | 1 to 10 | 10 to 100
16 | NC(=O)c1cnc(Nc2ccc(OC(F)(F)F)cc2)cc1NCc1cccc2[nH]ccc12 [Example 322, 4-((1H-indol-4-yl)methylamino)-6-(4-(trifluoromethoxy)phenylamino)nicotinamide] | > 1000 | 27 | 70 | – | – | > 1000 | 100 to 1000 | > 1000
17 | Cc1cc(Nc2cc(NCc3cccc4cc[nH]c34)c(C(N)=O)cn2)ccc1C(=O)N(C)C [Example 283, 4-((1H-indol-7-yl)methylamino)-6-(4-(dimethylcarbamoyl)-3-methylphenylamino)nicotinamide] | 10 to 100 | 42 | 65 | – | – | > 1000 | 1 to 10 | > 1000
18 | COc1ccc(Nc2cc(NCc3cccc4ccsc34)c(C(N)=O)cn2)cc1 [Example 284, 4-(benzo[b]thiophen-7-ylmethylamino)-6-(4-methoxyphenylamino)nicotinamide] | 100 to 1000 | 39 | 75 | – | – | > 1000 | 10 to 100 | > 1000
